Assay results: patent US20230121313A1 (priority 2019, published 2023)

What was measured:
[1] = tested on: subjects with MDD at imminent risk for suicide; conditions: 84 mg
Description: Among 68 randomized subjects, 66 were included in the safety analysis set (defined as receiving at least one dose of study medication in the double-blind phase). […] All safety subjects (N=66) were included in the intent-to-treat (ITT) analysis set (defined as receiving at least one dose of study medication during the double-blind phase and having both the baseline and the Day 1, 4-hour postdose evaluation for the MADRS total score). Forty-nine subjects were included in the safety (FU) analysis set (defined as all subjects who have at least 1 visit during the follow up phase).

[2] = tested on: patients with treatment-resistant depression (TRD); experiment: Vital signs (blood pressure, heart rate), phase 2 dose-response study in TRD; type: in vivo, human
[3] = tested on: patients with treatment-resistant depression (TRD); experiment: CGI-S, phase 2 dose-response study in TRD; type: in vivo, human
Description: Overall illness severity was assessed on the Clinical Global Impression of Severity (CGI-S) scale (Guy, “ECDEU Assessment Manual for Psychopharmacology-Revised (DHEW Publ No ADM 76-338)”, Rockville, Md.: U.S. Department of Health, Education, and Welfare, Public Health Service, Alcohol, Drug Abuse, and Mental Health Administration, NIMH Psychopharmacology Research Branch, Division of Extramural Research Programs; 1976, pp 218-222). Participants assessed their severity of anxiety on the Generalized Anxiety Disorder 7-item (GADS-7) Scale (See, Tables 157 and 158). See, Spitzer, “A brief measure for assessing generalized anxiety disorder—the GAD-7”, Arch. Intern. Med., 2006, 166(10):1092-1097.

[4] = human, in vivo, other: intranasal

CN[C@]1(c2ccccc2Cl)CCCCC1=O [esketamine, (S)-2-(2-chlorophenyl)-2-(methylamino)cyclohexanone]
AE Back pain, subjects (%) ([1]; follow up phase, N = 27): (3.7%)
AE Cogwheel rigidity, subjects (%) ([1]; follow up phase, N = 27): (3.7%)
AE Contusion, subjects (%) ([1]; follow up phase, N = 27): (3.7%)
AE Depression, subjects (%) ([1]; follow up phase, N = 27): (3.7%)
AE Diarrhea, subjects (%) ([1]; follow up phase, N = 27): (3.7%)
AE Dizziness, subjects (%) ([1]; follow up phase, N = 27): (3.7%)
AE Dry mouth, subjects (%) ([1]; follow up phase, N = 27): (7.4%)
AE Dysgeusia, subjects (%) ([1]; follow up phase, N = 27): (3.7%)
AE Ear infection, subjects (%) ([1]; follow up phase, N = 27): (3.7%)
AE Epistaxis, subjects (%) ([1]; follow up phase, N = 27): (3.7%)
AE Flank pain, subjects (%) ([1]; follow up phase, N = 27): (3.7%)
AE Gastrointestinal disorders, subjects (%) ([1]; follow up phase, N = 27): (22.2%)
AE Headache, subjects (%) ([1]; follow up phase, N = 27): (7.4%)
AE Infections and infestations, subjects (%) ([1]; follow up phase, N = 27): (11.1%)
AE Injury, poisoning and procedural complications, subjects (%) ([1]; follow up phase, N = 27): (7.4%)
AE Insomnia, subjects (%) ([1]; follow up phase, N = 27): (11.1%)
AE Intentional self-injury, subjects (%) ([1]; follow up phase, N = 27): (3.7%)
AE Loss of consciousness, subjects (%) ([1]; follow up phase, N = 27): (3.7%)
AE Migraine, subjects (%) ([1]; follow up phase, N = 27): (3.7%)
AE Musculoskeletal and connective tissue disorders, subjects (%) ([1]; follow up phase, N = 27): (7.4%)
AE Musculoskeletal chest pain, subjects (%) ([1]; follow up phase, N = 27): (3.7%)
AE Musculoskeletal pain, subjects (%) ([1]; follow up phase, N = 27): (3.7%)
AE Nasal congestion, subjects (%) ([1]; follow up phase, N = 27): (3.7%)
AE Nasopharyngitis, subjects (%) ([1]; follow up phase, N = 27): (3.7%)
AE Neck pain, subjects (%) ([1]; follow up phase, N = 27): (3.7%)
AE Nervous system disorders, subjects (%) ([1]; follow up phase, N = 27): (22.2%)
AE Night sweats, subjects (%) ([1]; follow up phase, N = 27): (3.7%)
AE Pelvic pain, subjects (%) ([1]; follow up phase, N = 27): (3.7%)
AE Pharyngitis, subjects (%) ([1]; follow up phase, N = 27): (7.4%)
AE Psychiatric disorders, subjects (%) ([1]; follow up phase, N = 27): (18.5%)
AE Reproductive system and breast disorders, subjects (%) ([1]; follow up phase, N = 27): (3.7%)
AE Respiratory, thoracic and mediastinal disorders, subjects (%) ([1]; follow up phase, N = 27): (7.4%)
AE Restlessness, subjects (%) ([1]; follow up phase, N = 27): (3.7%)
AE Road traffic accident, subjects (%) ([1]; follow up phase, N = 27): (3.7%)
AE Sedation, subjects (%) ([1]; follow up phase, N = 27): (3.7%)
AE Skin and subcutaneous tissue disorders, subjects (%) ([1]; follow up phase, N = 27): (3.7%)
AE Suicidal ideation, subjects (%) ([1]; follow up phase, N = 27): (3.7%)
AE Tremor, subjects (%) ([1]; follow up phase, N = 27): (7.4%)
AE Upper respiratory tract infection, subjects (%) ([1]; follow up phase, N = 27): (3.7%)
AE Vomiting, subjects (%) ([1]; follow up phase, N = 27): (3.7%)
AE Vulvovaginal mycotic infection, subjects (%) ([1]; follow up phase, N = 27): (3.7%)
Serious AE: Psychiatric disorders, subjects (%) ([1]; follow up phase, N = 27): 3.7%
Serious AE: Suicidal ideation, subjects (%) ([1]; follow up phase, N = 27): 3.7%
Total no. subjects with a serious adverse event (%) ([1]; follow up phase, N = 27): 3.7%
Total no. subjects with adverse events (%) ([1]; follow up phase, N = 27): (48.1%)
Subjects who discontinued from the double-blind phase due to adverse events [1, 4]: 5 subjects
Subjects with at least one TEAE [1, 4]: 94.3%
Subjects with at least one adverse event [1, 4]: 48.1%
TEAE dissociation, % of subjects [1, 4]: 31.4%
TEAE dizziness, % of subjects [1, 4]: 34.3%
TEAE dysgeusia, % of subjects [1, 4]: 31.4%
TEAE headache, % of subjects [1, 4]: 31.4%
TEAE nausea, % of subjects [1, 4]: 37.1%
TEAE vomiting, % of subjects [1, 4]: 20.0%
Subjects with a serious adverse event ([1]; human, in vivo, other: intranasal, 56 day): 1
Diastolic blood pressure: maximum mean change on dosing days [2]: 10.3 mmHg
Elevated blood pressure returned to the normal range by (post-dose) [2]: ≤ 2 h
Heart rate: maximum mean change on dosing days [2]: 9.4 bpm
Systolic blood pressure: maximum mean change on dosing days [2]: 19.0 mmHg
Maximum diastolic blood pressure value ([2]; 10 or 40 minutes post-dose): 115 mmHg
Maximum systolic blood pressure value ([2]; 10 or 40 minutes post-dose): 199 mmHg
CGI-S Median (Range) ([3]; Period 1, 28 mg): 4.0 (3, 5)
CGI-S Median Change (Range) from baseline to end point ([3]; Period 1, 28 mg): −1.0 (−2, 1)
CGI-S Median (Range) ([3]; Period 1, 56 mg): 4.0 (1, 5)
CGI-S Median Change (Range) from baseline to end point ([3]; Period 1, 56 mg): −1.0 (−3, 0)
CGI-S Median (Range) ([3]; Period 1, 84 mg): 4.0 (1, 6)
CGI-S Median Change (Range) from baseline to end point ([3]; Period 1, 84 mg): −0.5 (−4, 0)
CGI-S Median (Range) ([3]; Period 2, 28 mg): 4.0 (3, 5)
CGI-S Median Change (Range) from baseline to end point ([3]; Period 2, 28 mg): −1.0 (−1, 0)
CGI-S Median (Range) ([3]; Period 2, 56 mg): 5.0 (4, 6)
CGI-S Median Change (Range) from baseline to end point ([3]; Period 2, 56 mg): −1.0 (−2, 0)
CGI-S Median (Range) ([3]; Period 2, 84 mg): 4.0 (3, 5)
CGI-S Median Change (Range) from baseline to end point ([3]; Period 2, 84 mg): −1.0 (−2, 0)
